Data set [1] has as its system Granta-519 mouse xenograft. The data set is described as follows: Tumor growth inhibition in Granta-519 mouse xenograft model. Type of data set: in vivo. On the procedure: Granta-519 cells was maintained in DMEM medium supplemented with 10% fetal bovine serum and 2 mM L-Glutamine at 37° C. in an atmosphere of 5% CO2 in air. Cells in exponential growth phase were harvested and 1×10^7 cells in 0.1 mL of PBS with Matrigel (1:1) were injected subcutaneously at the right lower flank region of each mouse for tumor development. The treatments were started when the mean tumor size reaches approximately 300-400 mm^3. […] Example 1 or vehicle (0.5% Na CMC+0.5% Tween80, suspension) were administered orally (BID or QD for Example 1, QD for vehicle) at a dose of 25 mg/kg BID and 50 mg/kg QD for 16 and 20 days, respectively. Body weights and tumor size were measured every 3 to 4 days after randomization. Animals were euthanized 12 hours after last dosing, and blood and tumor samples were collected for analysis.

The subject of data set [2] is U87MG-luc3 human glioblastoma cells. The data set is described as follows: Tumor growth inhibition in U87 MG mouse orthotopic model. In kind it is in vivo. The conditions noted are these: for tumor growth inhibition: day 29. How it is done:
U87MG-luc3 human glioblastoma cells were grown to mid-log phase in Eagle's Minimum Essential Medium containing 10% fetal bovine serum, 2 mM glutamine, 1× non-essential amino acids, 0.075% sodium bicarbonate, 1 mM sodium pyruvate, 100 units/mL sodium penicillin G, g/mL gentamicin, and 100 μg/mL streptomycin sulfate. The tumor cells were cultured in tissue culture flasks in a humidified incubator at 37° C., in an atmosphere of 5% CO2 and 95% air. Cells were cultured in 2 μg/mL puromycin until the second to last passage before implant, grown to mid-log phase and harvested. Post-implant verification of luciferase-expressing cells was performed by maintaining cells in culture for three passages after implant to ensure stable doubling time. Limiting dilution was used to verify and quantitate light production in the presence of luciferin. Cells were harvested at mid-log phase and resuspended at a concentration of 1×10^8 cells/mL in PBS. Each mouse (Female athymic nude mice (Crl:NU(NCr)-Foxn1nu, Charles River)) received an intracranial injection of 1×10^6 U87MG-luc3 cells (0.01 mL cell suspension) and tumor growth was monitored through whole body bioluminescent imaging. Four days post cell implant, designated as Day 1 of the study, the animals were sorted into five groups based on flux values before treatment starts. Ex. 11 or vehicle (0.5% Na CMC+0.5% Tween80) was administered orally BID. Ex. 11 was dosed at 10, 20 mg/kg BID and 50 mg/kg BID, 7-day on/7-day off for 22 days. Animals were continued to be observed to obtain overall survival data.
In Vivo bioluminescence images (dorsal) were captured to monitor tumor progression. Luciferase activity was measured in live animals using IVIS SpectrumCT (Perkin Elmer, Mass.) equipped with a CCD camera (cooled at −90° C.), mounted on a light-tight specimen chamber. Regions of interest were drawn around each mouse image, and flux was quantified and reported as 10^6 photons per second (p/s). For overall survival, animals were monitored individually to an endpoint of moribundity due to progression of systemic lymphoma. Full hind limb paralysis, severe ocular proptosis or moribundity all called for euthanasia.

Setting [3] is: 50 mg/kg BID oral, 7-day on/7-day off.

Here are results for two compounds from US11524962B2, “Substituted pyrrolo[2,3-d]pyrimidines as inhibitors of protein arginine methyl transferase 5 (PRMT5)” (PRELUDE THERAPEUTICS, INCORPORATED, priority 2017, dated 2022).

With `C[C@@](O)(c1ccc2c(c1)CC2)[C@H]1O[C@@H](n2ccc3c(N)ncnc32)[C@H](O)[C@@H]1O` [Example 1, (2R,3R,4S,5S)-2-(4-amino-7H-pyrrolo[2,3-d]pyrimidin-7-yl)-5-((R)-1-(bicyclo[4.2.0]octa-1(6),2,4-trien-3-yl)-1-hydroxyethyl)tetrahydrofuran-3,4-diol], in data set [1] (25 mg/kg BID oral, 16 days), the body weight loss is 6.75% and the tumor growth inhibition is given as 76.7%. In data set [1] (50 mg/kg QD oral, 20 days), this compound displayed a body weight gain of 10.1% and a tumor growth inhibition of 5.8%.
On to `Cc1ncnc2c1ccn2[C@@H]1O[C@H]([C@H](O)c2ccc3c(c2)CC3)[C@@H](O)[C@H]1O` [Example 11, (2R,3S,4R,5R)-2-((R)-bicyclo[4.2.0]octa-1(6),2,4-trien-3-yl(hydroxy)methyl)-5-(4-methyl-7H-pyrrolo[2,3-d]pyrimidin-7-yl)tetrahydrofuran-3,4-diol], for which the median survival is 41 days in data set [2] (10 mg/kg BID oral), 37.5 days in data set [2] (20 mg/kg BID oral) and 39 days in data set [2] (setting [3]). For the same compound, the tumor growth inhibition in data set [2] (10 mg/kg BID oral) was found to be 10%; in data set [2] (20 mg/kg BID oral), 61%; in data set [2] (setting [3]), 85%.
